Assay results from US9499530B2 (HANGZHOU MINSHENG INSTITUTES FOR PHARMA RESEARCH, priority 2011, dated 2016).
Entries after “also recorded” stand apart in the source; their conditions may differ.

Assays:
[1] = tested on: human lung cancer A549 xenograft; experiment: Growth inhibition of A549 xenograft in nude mice; assay type: in vivo; details: for growth inhibition of human lung cancer A549 compared with positive control lapatinib (in words): xenograft in nude mice, 200 mg/kg
Text: Objective of the test: Determining the inhibition of some compounds of the present invention to the growth of human lung cancer A549 transplanted into nude mice and the action intensity thereof.
1. Human lung cancer A549 xenograft in nude mice, which was set up by subcutaneously transplantion of the human lung cancer A549 cell lines into right axillary fossa of nude mice. The amount of inoculation is 2×10^6 cells/mouse. Xenograft inoculated into the nude mice was passaged for 3 generations before use.
2. The solvent used in the experiments is: 0.5% of hydroxypropylmethyl cellulose and 0.1% of Tween-80.
3. Vigorous growing tumor tissues were selected to be chopped into approximately 1 mm^3. Under sterile conditions, the tumor tissue blocks were subcutaneously transplanted into right axillary fossa of nude mice. The diameters of the xenograft in nude mice were measured with a vernier caliper. When tumors reached approximately 100-300 mm^3 in size, the animals were randomly divided into groups, wherein there are 12 animals in solvent control group, and 6 animals per group in the other groups. […] The administered dosages were both 200 mg/kg, 5 times per week for consecutive four weeks. The diameters of the tumors were measured twice per week. The negative control group was intragastricly administrated the same amount of solvent. After the experiment, the mice were sacrificed. The tumors were surgically stripped and weighed. The tumor volume (TV) was calculated by the following equation:
[formula] in which a and b represents for the length and the width respectively.
According to the measured results, the relative tumor volume (RTV) was calculated. The calculation equation was: RTV=Vt/V0, wherein V0 is the tumor volume measured during cage administration (i.e. d0), Vt is the tumor volume of each measurement. The evaluation index of anti-tumor activity was the relative tumor growth ratio T/C (%), which was calculated by the following equation: […]
TRTV: treatment group's RTV; CRTV: negative control group's RTV.

[2] = target: KDR (Vascular Endothelial Growth Factor Receptor 2) (Homo sapiens, UniProt P35968); experiment: ELISA protein tyrosine kinase inhibition, KDR; assay type: biochemical; details: for IC50: ELISA, Poly(Glu, Tyr) 4:1 substrate, ATP 5 μM, test samples at 10-5 mol/l, read-out: KDR inhibitory activity (IC50 class)
Text: (§1) Determining the Effect of Test Samples at a Concentration of 10-5 Mol/l on the Activity of the Substrate Phosphoryation Catalyzed by EGFR (Epidermal Growth Factor Receptor 1), ErbB-2 (Epidermal Growth Factor Receptor 2), ErbB-4, KDR (Vascular Endothelial Growth Factor Receptor 2) Protein Tyrosine Kinases at Molecular Level
(§2) Enzyme-Linked Immunosorbent Assay (ELISA)
(§3) Main instrument: wavelength-tunable microplate reader (VERSAmax).
(§4) Main reagents: kinase reaction substrate Poly(Glu, Tyr) 4:1 from Sigma; anti-phosphotyrosine monoclonal antibody PY99 from Santa Cruz; horseradish peroxidase-labeled goat anti-mouse IgG from Calbiochem; ATP, DTT, OPD from Amresco, and ELISA plate from Corning.
(§5) Poly(Glu, Tyr)4:1 as an enzyme substrate was diluted by potassium ion-free PBS into 20 μg/ml, and an ELISA plate was coated and subjected to reaction for 12-16 h at 37° C. After the liquid in wells was removed, the plate was washed three time by T-PBS, 5 min for each time. The ELISA plate was then dried in an oven at 37° C. The coated wells were added with the test samples: the test samples were prepared for a stock solution with a concentration of 1×10^−2M in DMSO. The aliquot solution was stored at −20° C., and diluted to the desired concentration with reaction buffer before use. The resulting solution was added into the wells so that the final concentration of 10-5 mol/l in 100 μL reaction system can be obtained. At the same time, a positive control well was set up and a positive control compound Su11248 was added. ATP and test tyrosine kinases were added: ATP solution diluted with reaction buffer was added (the final concentration of ATP is 5 μM). Finally, the test tyrosine kinases solution diluted with reaction buffer was added. The total volume of the reaction system was […]. Meanwhile, a negative control well and a control well without enzyme were set up. The reaction system was placed in a wet box, and shaked for 1 hour at 37° C., shielding from light. After the reaction was complete, the plate was washed by T-PBS three times. Antibody PY99 was added at 100 μL/well; and the plate was shaked for 30 min at 37° C. After the reaction was complete, the plate was washed with T-PBS three times. Horseradish peroxidase-labeled goat anti-mouse IgG was added at 100 μL/well, and the plate was shaked for 30 min at 37° C. The plate was washed with T-PBS three times. OPD developing liquid was added at 100 μL/well, and reacted for 1-10 min at room temperature, shielding from light. 50 μL of 2 M H2SO4 was added to stop the reaction. A492 value was determined using wavelength-tunable microplate reader. The inhibition ratio of the samples can be calculated by the following equation: […]

[3] = target: EGFR (Epidermal Growth Factor Receptor 1) (Homo sapiens, UniProt P00533); experiment: ELISA protein tyrosine kinase inhibition, EGFR; assay type: biochemical; details: for IC50: ELISA, Poly(Glu, Tyr) 4:1 substrate, ATP 5 μM, test samples at 10-5 mol/l, read-out: EGFR inhibitory activity (IC50 class)
Text: as §1, §2, §3, §4, §5

[4] = target: ErbB-4 (Homo sapiens, UniProt Q15303); experiment: ELISA protein tyrosine kinase inhibition, ErbB-4; assay type: biochemical; details: for IC50: ELISA, Poly(Glu, Tyr) 4:1 substrate, ATP 5 μM, test samples at 10-5 mol/l, read-out: ErbB4 inhibitory activity (IC50 class)
Text: as §1, §2, §3, §4, §5

[5] = target: ErbB-2 (Epidermal Growth Factor Receptor 2) (Homo sapiens, UniProt P04626); experiment: ELISA protein tyrosine kinase inhibition, ErbB-2; assay type: biochemical; details: Poly(Glu, Tyr) 4:1 substrate, ATP 5 μM, test samples at 10-5 mol/l, read-out: ErbB2 inhibitory activity (IC50 class)
Text: as §1, §2, §3, §4, §5

KDR (Vascular Endothelial Growth Factor Receptor 2), sequence (P35968 20-1356): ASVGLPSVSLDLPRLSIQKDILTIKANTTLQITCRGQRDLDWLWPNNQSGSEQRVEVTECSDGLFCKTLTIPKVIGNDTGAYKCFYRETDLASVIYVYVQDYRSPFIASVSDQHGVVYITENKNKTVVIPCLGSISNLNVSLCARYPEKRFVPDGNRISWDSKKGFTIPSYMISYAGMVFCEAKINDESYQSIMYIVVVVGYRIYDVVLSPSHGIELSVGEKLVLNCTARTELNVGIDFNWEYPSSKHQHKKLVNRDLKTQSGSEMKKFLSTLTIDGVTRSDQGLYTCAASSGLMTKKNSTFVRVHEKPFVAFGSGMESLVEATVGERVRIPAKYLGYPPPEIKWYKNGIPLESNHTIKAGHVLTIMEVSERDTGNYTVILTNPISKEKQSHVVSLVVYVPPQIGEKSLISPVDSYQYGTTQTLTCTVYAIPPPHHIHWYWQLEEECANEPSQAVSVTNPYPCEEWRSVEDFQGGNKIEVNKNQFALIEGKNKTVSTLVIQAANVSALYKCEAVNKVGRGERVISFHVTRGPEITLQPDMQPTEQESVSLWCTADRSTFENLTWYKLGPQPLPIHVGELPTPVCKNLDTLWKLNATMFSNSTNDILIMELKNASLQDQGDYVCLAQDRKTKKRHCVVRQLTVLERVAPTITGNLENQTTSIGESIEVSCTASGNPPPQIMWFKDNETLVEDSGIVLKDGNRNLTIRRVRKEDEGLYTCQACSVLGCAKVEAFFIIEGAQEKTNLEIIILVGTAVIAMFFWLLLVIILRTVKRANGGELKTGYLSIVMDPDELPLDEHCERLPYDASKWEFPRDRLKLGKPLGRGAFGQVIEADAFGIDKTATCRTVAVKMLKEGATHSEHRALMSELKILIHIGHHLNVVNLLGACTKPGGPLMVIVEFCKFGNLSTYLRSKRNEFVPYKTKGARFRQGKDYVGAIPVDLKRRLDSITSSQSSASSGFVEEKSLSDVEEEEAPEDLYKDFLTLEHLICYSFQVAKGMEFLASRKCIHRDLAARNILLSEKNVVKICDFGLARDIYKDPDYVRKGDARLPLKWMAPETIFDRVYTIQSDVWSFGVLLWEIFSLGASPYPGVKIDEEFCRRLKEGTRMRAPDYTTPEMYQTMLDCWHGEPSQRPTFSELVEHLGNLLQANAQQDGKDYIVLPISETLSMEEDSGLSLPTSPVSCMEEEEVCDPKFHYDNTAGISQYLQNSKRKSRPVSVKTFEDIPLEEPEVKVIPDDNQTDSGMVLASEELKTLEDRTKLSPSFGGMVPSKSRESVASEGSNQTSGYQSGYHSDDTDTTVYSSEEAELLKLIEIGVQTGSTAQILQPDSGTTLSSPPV
ErbB-4, sequence (Q15303 26-1308): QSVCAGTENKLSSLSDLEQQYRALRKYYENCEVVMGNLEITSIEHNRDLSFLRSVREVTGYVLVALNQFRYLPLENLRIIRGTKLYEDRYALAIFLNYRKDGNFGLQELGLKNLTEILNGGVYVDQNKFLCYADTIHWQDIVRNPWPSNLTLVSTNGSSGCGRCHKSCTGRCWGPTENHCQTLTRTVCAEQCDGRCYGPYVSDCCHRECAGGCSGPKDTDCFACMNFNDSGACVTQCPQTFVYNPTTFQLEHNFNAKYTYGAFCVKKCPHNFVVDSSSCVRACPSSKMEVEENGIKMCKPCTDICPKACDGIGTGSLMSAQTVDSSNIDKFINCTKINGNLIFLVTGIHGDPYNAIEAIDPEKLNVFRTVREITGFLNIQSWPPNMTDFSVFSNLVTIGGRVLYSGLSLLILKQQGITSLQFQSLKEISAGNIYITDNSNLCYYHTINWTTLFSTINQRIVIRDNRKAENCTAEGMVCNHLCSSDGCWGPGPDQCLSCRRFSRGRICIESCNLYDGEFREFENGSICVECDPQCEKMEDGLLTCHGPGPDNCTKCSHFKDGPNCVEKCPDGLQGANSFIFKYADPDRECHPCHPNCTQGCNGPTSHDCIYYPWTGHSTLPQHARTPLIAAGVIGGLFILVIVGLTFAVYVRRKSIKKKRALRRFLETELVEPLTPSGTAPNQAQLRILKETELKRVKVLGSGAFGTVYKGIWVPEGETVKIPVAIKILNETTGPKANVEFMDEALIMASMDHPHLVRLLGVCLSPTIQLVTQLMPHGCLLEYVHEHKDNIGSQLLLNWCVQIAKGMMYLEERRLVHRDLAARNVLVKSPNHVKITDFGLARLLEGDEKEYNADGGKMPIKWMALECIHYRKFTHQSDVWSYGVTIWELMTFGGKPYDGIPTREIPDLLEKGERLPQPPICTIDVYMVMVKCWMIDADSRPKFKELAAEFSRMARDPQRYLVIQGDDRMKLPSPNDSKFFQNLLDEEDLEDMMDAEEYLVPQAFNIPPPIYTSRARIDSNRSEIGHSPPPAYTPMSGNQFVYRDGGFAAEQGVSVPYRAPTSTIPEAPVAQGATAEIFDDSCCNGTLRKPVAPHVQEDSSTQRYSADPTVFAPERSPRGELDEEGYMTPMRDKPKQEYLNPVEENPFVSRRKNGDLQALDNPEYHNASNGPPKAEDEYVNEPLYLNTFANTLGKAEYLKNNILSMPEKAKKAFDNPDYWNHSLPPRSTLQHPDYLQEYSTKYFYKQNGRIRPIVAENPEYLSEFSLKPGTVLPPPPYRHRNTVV

IC50 [2] [µM] | IC50 [3] [µM] | IC50 [5] [µM] | Compound | inhibitory activity against KDR (in words) [2] | also measured
< 10 | < 10 | < 10 | OCCCNCc1ccc(-c2ccc3ncnc(Nc4ccc(OCc5cccc(F)c5)c(Cl)c4)c3c2)o1 [MS42·di-p-toluenesulfonate, N-(3-chloro-4-((3-fluorobenzyl)oxy)phenyl)-6-(5-(((3-hydroxypropyl)amino)methyl)-2-furyl)-4-quinazolinamine] | – | IC50 [4]: < 10 µM
< 10 | < 10 | > 10 | Fc1cccc(COc2ccc(Nc3ncnc4ccc(-c5ccc(CNCC6CCCC(Cl)C6)o5)cc34)cc2Cl)c1 (stereo not drawn) [MS 9, N-(3-chloro-4-((3-fluorobenzyl)oxy)phenyl)-6-(5-((((3-chlorocyclohexyl)methyl)amino)methyl)-2-furyl)-4-quinazolinamine] | – | –
> 10 | – | < 10 | Fc1ccc(Nc2ncnc3ccc(-c4ccc(CNCCC5=CCCCC5)o4)cc23)cc1Cl [MS41, N-(3-chloro-4-fluorophenyl)-6-(5-(((2-(cyclohexenyl)ethyl)amino)methyl)-2-furyl)-4-quinazolinamine] | – | –
– | < 10 | < 10 | N-(3-chloro-4-((3-fluorobenzyl)oxy)phenyl)-6-(5-((4-methylpiperazinyl)methyl)-2-pyrrolidinyl)-4-quinazolinamine [MS 34] | – | inhibitory activity against EGFR (in words) [3]: better inhibitory activity; inhibition of c-ErbB4/HER4 (in words) [4]: very good inhibition; IC50 [4]: < 10 µM
> 10 | – | < 10 | CCCNCc1ccc(-c2ccc3ncnc(Nc4ccc(F)c(Cl)c4)c3c2)o1 [MS 36, N-(3-chloro-4-fluorophenyl)-6-(5-(((propyl)amino)methyl)-2-furyl)-4-quinazolinamine] | – | TV (mm^3) End ([1]; A549 xenograft, 200 mg/kg intragastric, 5 times per week for four weeks, end): 770.3 ± 212.8^▴ mm^3; TV (mm^3) Start ([1]; A549 xenograft, 200 mg/kg intragastric, start of dosing): 155.5 ± 72.8 mm^3; T/C (%) ([1]; A549 xenograft, relative tumor growth ratio, 200 mg/kg intragastric, 5 times per week for four weeks): 36.1%; Weight (g) End ([1]; nude mice with A549 xenograft, 200 mg/kg intragastric, 5 times per week for four weeks, end): 25.0 ± 1.8 g; Weight (g) Start ([1]; nude mice with A549 xenograft, 200 mg/kg intragastric, start of dosing): 24.5 ± 1.8 g; growth inhibition of human lung cancer A549 compared with positive control lapatinib (in words) [1]: better growth inhibition effect
> 10 | – | < 10 | CC=CCNCc1ccc(-c2ccc3ncnc(Nc4ccc(F)c(Cl)c4)c3c2)o1 [MS 39, N-(3-chloro-4-fluorophenyl)-6-(5-(((2-butenyl)amino)methyl)-2-furyl)-4-quinazolinamine] | – | –
< 10 | < 10 | > 10 | Fc1cccc(COc2ccc(Nc3ncnc4ccc(-c5ccc(CNCC6CCCCC6)o5)cc34)cc2Cl)c1 [MS 7, N-(3-chloro-4-((3-fluorobenzyl)oxy)phenyl)-6-((5-((cyclohexylmethyl)amino)methyl)-2-furyl)-4-quinazolinamine] | – | –
– | < 10 | < 10 | CSCCC(NCc1ccc(-c2ccc3ncnc(Nc4ccc(OCc5cccc(F)c5)c(Cl)c4)c3c2)o1)C(=O)O (stereo not drawn) [MS 26, N-(3-chloro-4-((3-fluorobenzyl)oxy)phenyl)-6-(5-((((1-carboxy-3-methylthio)propyl)amino)methyl)-2-furyl)-4-quinazolinamine] | – | growth inhibition of human lung cancer A549 compared with positive control lapatinib (in words) [1]: better effective inhibition
> 10 | < 10 | < 10 | Fc1cccc(COc2ccc(Nc3ncnc4ccc(-c5ccc(CNCCc6cccc(Cl)c6)o5)cc34)cc2Cl)c1 [MS 20, N-(3-chloro-4-((3-fluorobenzyl)oxy)phenyl)-6-(5-(((2-(3-chlorophenyl)ethyl)amino)methyl)-2-furyl)-4-quinazolinamine] | – | –

The next lines start with the compound.

Compound | IC50 [2] [µM] | IC50 [3] [µM] | IC50 [5] [µM] | inhibitory activity against KDR (in words) [2] | also measured
OCC(CO)NCc1ccc(-c2ccc3ncnc(Nc4ccc(OCc5cccc(F)c5)c(Cl)c4)c3c2)o1 [MS6, N-(3-chloro-4-((3-fluorobenzyl)oxy)phenyl)-6-(5-((2-(1,3-dihydroxypropyl)amino)methyl)-2-furyl)-4-quinazolinamine] | – | – | – | better inhibitory activity; also recorded: higher inhibitory activity | growth inhibition of human lung cancer A549 compared with positive control lapatinib (in words) [1]: better effective inhibition; also recorded: better growth inhibition effect
OCCCCNCc1ccc(-c2ccc3ncnc(Nc4ccc(OCc5cccc(F)c5)c(Cl)c4)c3c2)o1 [MS1·dimethanesulfonate, N-(3-chloro-4-((3-fluorobenzyl)oxy)phenyl)-6-(5-(((4-hydroxybutyl)amino)methyl)-2-furyl)-4-quinazolinamine] | < 10 | < 10 | < 10 | – | IC50 [4]: < 10 µM
OCCCCNCc1ccc(-c2ccc3ncnc(Nc4ccc(OCc5cccc(F)c5)c(Cl)c4)c3c2)o1 [MS1, N-(3-chloro-4-((3-fluorobenzyl)oxy)phenyl)-6-(5-(((4-hydroxybutyl)amino)methyl)-2-furyl)-4-quinazolinamine] | – | – | – | better inhibitory activity; also recorded: higher inhibitory activity | –
OCCN(CCO)Cc1ccc(-c2ccc3ncnc(Nc4ccc(OCc5cccc(F)c5)c(Cl)c4)c3c2)o1 [MS18, N-(3-chloro-4-((3-fluorobenzyl)oxy)phenyl)-6-(5-((bis(2-hydroxyethyl)amino)methyl)-2-furyl)-4-quinazolinamine] | – | – | – | better inhibitory activity; also recorded: higher inhibitory activity | –
OCCCNCc1ccc(-c2ccc3ncnc(Nc4ccc(OCc5cccc(F)c5)c(Cl)c4)c3c2)o1 [MS42] | – | – | – | better inhibitory activity; also recorded: higher inhibitory activity | –
OCCNCc1ccc(-c2ccc3ncnc(Nc4ccc(OCc5cccc(F)c5)c(Cl)c4)c3c2)o1 [MS27, N-(3-chloro-4-((3-fluorobenzyl)oxy)phenyl)-6-(5-(((2-hydroxyethyl)amino)methyl)-2-furyl)-4-quinazolinamine] | – | – | – | better inhibitory activity; also recorded: higher inhibitory activity | growth inhibition of human lung cancer A549 compared with positive control lapatinib (in words) [1]: better effective inhibition; also recorded: better growth inhibition effect
OCC(O)CNCc1ccc(-c2ccc3ncnc(Nc4ccc(OCc5cccc(F)c5)c(Cl)c4)c3c2)o1 (stereo not drawn) [MS31, N-(3-chloro-4-((3-fluorobenzyl)oxy)phenyl)-6-(5-(1-(2,3-dihydroxypropyl)amino)methyl-2-furyl)-4-quinazolinamine] | – | – | – | better inhibitory activity; also recorded: higher inhibitory activity | –
